Test results reported in US20050282814A1, “Vasculostatic agents and methods of use thereof” (TargeGen, Inc., priority 2002, published 2005).
Where a name gives a salt, the structure may show the parent alone.

Tests used:
[1] = system: edema formation induced using histamine as an agonist; test: Miles assay with histamine as agonist; format: in vivo, Sprague-Dawley rats; conditions: 1.5 mg/kg; histamine 10 μg/injection site; vehicle 12
Description: Sprague-Dawley rats were first injected IV with vehicle alone or test agent, followed by IV injection of Evans blue dye, followed by intradermal injections of saline and VEGF (200 ng/injection site) along both shaved flanks. After 45 min, intradermal injection sites were photographed and then scored by a blinded observer for extravasation of Evans blue dye into the dermis (dermal bluing) according to a 4 point scoring system (3=maximal bluing, ≧75% of response in vehicle-treated animals; 2=medium bluing, >25% but <75% of vehicle-treated animals; 1=minimal bluing, ≦25% of vehicle-treated animals; 0=bluing equivalent to saline injection sites on same animal). Individual scores for 4 injection sites (from 2 separate animals) were summed and are shown as a scale of 0-12, with a lower score indicating the greater anti-edema activity; note that all vehicle-treated groups score a value of 12, based on the scoring system outlined above.
The ability of test agents to influence edema induced by agonists other than VEGF was also tested. Compounds cited in this application inhibited edema formation induced using histamine as an agonist, for example, as shown below.
The ability of test agent to influence vascular edema was tested as above, except that the ability to block edema was tested using either VEGF or histamine as the agonist (200 ng and 10 μg/injection site, respectively).

[2] = system: angiogenesis; test: Matrigel plug angiogenesis model (bFGF or VEGF), FITC-lectin; format: in vivo, Athymic WeHi (nu/nu) mice; conditions: 10 mg/kg i.p. bid for four days; matrigel with bFGF or VEGF
Description: FIGS. 13 and 14 illustrate the effects of invention compounds for their capacity to inhibit angiogenesis in vivo. […] Tumor extracellular matrix infused with the 160 ng of the described growth factors were injected subcutaneously in a Balb/C mouse. The described invention compound was injected daily at the described concentration for 5 days. After 5 days the animals were sacrificed and angiogenesis quantified based on the binding of fluorescently labeled, endothelium specific FITC-lectin. In the graph, compound A is 6,7-bis(4-hydroxyphenyl)-pteridin-4-ylamine sulfate salt.
Referring to FIGS. 13 and 14, a murine model of angiogenesis was used to screen compounds for their capacity to inhibit angiogenesis. […] In the graph, compound A is 6,7-bis(4-hydroxyphenyl)-pteridin-4-ylamine sulfate salt. Athymic WeHi (nu/nu) mice were first injected with 400 lls of an ice-cold tumor-derived extracellular matrix substrate, matrigel (Becton-Dickinson) infused with 400 ng/ml of bFGF or VEGF (R&D Systems) which rapidly solidifies into a subdermal plug at body temperature. Mice were subsequently injected intaperitoneally with 10 mg/kg of the indicated compounds bid for four days. […] Twenty minutes after injection of the lectin, mice were euthanized, matrigel plugs were then extracted, solublized in PBS with mechanical grinding and the fluorescent content of individual plugs was quantified. […]

With `Nc1ncnc2nc(-c3ccc(O)cc3)c(-c3ccc(O)cc3)nc12` [compound A, 6,7-bis(4-hydroxyphenyl)-pteridin-4-ylamine sulfate salt] the “Score with histamine as agonist (scale of 0-12)” value [1] was 3 and the “inhibition of angiogenesis in vivo” value [2] was “successfully inhibited angiogenesis in vivo”.
